Data on 63 molecules can be found in ChEMBL document CHEMBL5385846, “Discovery and development of palmatine analogues as anti-NASH agents by activating farnesoid X receptor (FXR)” (Eur J Med Chem, 2023).

Data set [1] deals with Collagen alpha-1(I) chain (Homo sapiens) (UniProt P02452). Put plainly: Inhibition of COL1A1 (unknown origin) expressed in human LX2 cells at 20 micromol/L incubated for 48 hrs by Bright-Glo luciferase assay relative to control. In kind it is cell-based. The note with it: dose 20.0 µmol/L.
The test system of data set [2] is COL1A1. Put plainly: Selectivity index, ratio of CC50 for cytotoxicity against human LX2 cells to IC50 for inhibition of COL1A1 (unknown origin) expressed in human LX2 cells. The following applies: read-out: Ratio CC50/IC50. In kind it is toxicity, cell-based.
Data set [3] in a line: Cytotoxicity against human LX2 cells assessed as inhibition of cell growth. The format is toxicity, cell-based, LX-2.

Chain of Collagen alpha-1(I) chain (Homo sapiens) (P02452 whole entry): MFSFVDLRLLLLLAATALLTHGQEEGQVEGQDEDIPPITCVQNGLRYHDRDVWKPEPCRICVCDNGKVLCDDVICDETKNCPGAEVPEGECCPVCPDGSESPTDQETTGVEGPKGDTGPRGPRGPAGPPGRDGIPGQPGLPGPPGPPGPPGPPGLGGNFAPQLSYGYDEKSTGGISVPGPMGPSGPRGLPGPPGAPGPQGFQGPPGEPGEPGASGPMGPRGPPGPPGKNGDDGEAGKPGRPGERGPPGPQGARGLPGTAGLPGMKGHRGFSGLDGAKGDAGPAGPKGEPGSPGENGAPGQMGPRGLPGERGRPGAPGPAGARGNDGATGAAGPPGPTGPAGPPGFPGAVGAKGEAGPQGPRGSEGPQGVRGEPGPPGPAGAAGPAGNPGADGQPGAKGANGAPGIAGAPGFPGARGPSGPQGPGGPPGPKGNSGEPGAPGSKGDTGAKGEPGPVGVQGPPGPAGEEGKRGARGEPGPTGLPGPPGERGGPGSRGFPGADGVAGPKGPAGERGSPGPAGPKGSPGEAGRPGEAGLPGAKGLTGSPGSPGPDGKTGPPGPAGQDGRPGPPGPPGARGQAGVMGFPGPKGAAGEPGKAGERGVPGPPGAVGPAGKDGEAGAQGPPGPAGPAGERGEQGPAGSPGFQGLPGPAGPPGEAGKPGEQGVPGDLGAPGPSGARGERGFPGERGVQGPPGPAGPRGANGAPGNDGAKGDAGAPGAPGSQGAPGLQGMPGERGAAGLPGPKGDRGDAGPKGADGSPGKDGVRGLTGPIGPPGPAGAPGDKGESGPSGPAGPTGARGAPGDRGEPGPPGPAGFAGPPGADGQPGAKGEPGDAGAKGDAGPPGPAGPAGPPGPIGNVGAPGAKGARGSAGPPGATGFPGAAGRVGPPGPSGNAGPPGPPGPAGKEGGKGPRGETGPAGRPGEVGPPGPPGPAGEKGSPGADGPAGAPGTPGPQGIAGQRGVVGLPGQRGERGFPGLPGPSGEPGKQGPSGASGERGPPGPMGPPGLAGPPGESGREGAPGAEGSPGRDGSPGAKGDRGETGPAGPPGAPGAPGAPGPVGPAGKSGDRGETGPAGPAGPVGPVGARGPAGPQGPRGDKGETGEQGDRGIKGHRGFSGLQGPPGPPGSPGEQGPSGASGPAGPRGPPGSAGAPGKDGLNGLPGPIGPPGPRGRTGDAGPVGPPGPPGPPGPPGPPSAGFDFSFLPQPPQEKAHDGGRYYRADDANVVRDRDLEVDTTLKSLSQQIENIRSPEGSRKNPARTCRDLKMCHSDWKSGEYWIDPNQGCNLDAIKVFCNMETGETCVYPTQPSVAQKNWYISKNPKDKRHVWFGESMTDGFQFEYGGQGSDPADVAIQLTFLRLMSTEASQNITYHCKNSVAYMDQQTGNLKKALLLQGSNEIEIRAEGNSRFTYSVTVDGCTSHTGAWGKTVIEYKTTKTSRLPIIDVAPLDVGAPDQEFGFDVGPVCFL

As for `COc1cc2c(cc1OC)-c1cc3ccc(OC)c(NCc4ccccc4)c3c[n+]1CC2`, the inhibition in data set [1] came to 25.4%. Turning to `COc1cc2c(cc1OC)-c1cc3ccc(OC)c(NC(=O)C4CCCC4)c3c[n+]1CC2`, the inhibition in data set [1] was 10.8%.

Turning to `COc1cc2c(cc1OC)-c1cc3ccc(OC)c(OCc4ccc(C#N)cc4)c3c[n+]1CC2`, the inhibition in data set [1] is 5.2%. Same read-out and setting: the same measure for `COc1cc2c(cc1OC)-c1cc3ccc(OC)c(NCc4ccc(F)cc4)c3c[n+]1CC2`: 23.7%.

`COc1cc2c(cc1OC)-c1c(Cc3cccc(C)c3)c3ccc(OC)c(OC)c3c[n+]1CC2` returned an inhibition in data set [1] of 0%. On the same count and under the same terms, to `COc1cc2c(cc1OC)-c1cc3ccc(OC)c(OC(=O)C(=O)c4cccnc4)c3c[n+]1CC2` belongs 6.07%; to `COC(=O)C(Oc1c(OC)ccc2cc3[n+](cc12)CCc1cc(OC)c(OC)cc1-3)c1ccccc1` (stereo not given), 23.4%; to `CCCCC(=O)Nc1c(OC)ccc2cc3[n+](cc12)CCc1cc(OC)c(OC)cc1-3`, 0%.

Molecule `COc1cccc(COc2c(OC)ccc3cc4[n+](cc23)CCc2cc(OC)c(OC)cc2-4)c1` registered an inhibition in data set [1] of 21.4%. In the case of `COc1cc2c(cc1OC)-c1cc3ccc(OC)c(OCc4ccc(C)cc4)c3c[n+]1CC2`, the inhibition in data set [1] turned out to be 25.6%. On to `COc1cc2c(cc1OC)-c1c(Cc3ccccc3C)c3ccc(OC)c(OC)c3c[n+]1CC2`, for which the selectivity ratio in data set [2] was found to be 3.21. Further, in data set [1], the inhibition is 58.4%. The half-maximal cytotoxic concentration (CC50) in data set [3] is 45.6 µM. `COc1cc2c(cc1OC)-c1cc3ccc(OC)c(OCc4ccccn4)c3c[n+]1CC2` registered an inhibition in data set [1] of 15.2%. Consider `COc1cc2c(cc1OC)-c1cc3ccc(OC)c(NCc4ccc(C)cc4)c3c[n+]1CC2`, for which the selectivity ratio in data set [2] was found to be 5.82. The same molecule yielded an inhibition in data set [1] of 79.2%. In addition, in data set [3], the 50% cytotoxic concentration (CC50) was 65.5 µM. Regarding `COc1cc2c(cc1OC)-c1cc3ccc(OC)c(OCC4CCC4)c3c[n+]1CC2`, the inhibition in data set [1] stood at 9.25%. The same measure, in the same setting: the same measure for `CCCNc1c(OC)ccc2cc3[n+](cc12)CCc1cc(OC)c(OC)cc1-3`: 22.6%; for `CCC(=O)Nc1c(OC)ccc2cc3[n+](cc12)CCc1cc(OC)c(OC)cc1-3`: 0%. Same read-out and setting: the same measure for `COc1cc2c(cc1OC)-c1c(Cc3ccc(C#N)cc3)c3ccc(OC)c(OC)c3c[n+]1CC2`: 16.3%. Still for that read-out and setting: the same measure for `COc1cc2c(cc1OC)-c1cc3ccc(OC)c(OCc4ccc(F)cc4)c3c[n+]1CC2`: 10.9%. For the molecule `COc1ccc(CNc2c(OC)ccc3cc4[n+](cc23)CCc2cc(OC)c(OC)cc2-4)c(OC)c1`, the inhibition in data set [1] was 36%. Still for that read-out and setting: to `COc1cc2c(cc1OC)-c1c(Cc3ccc(F)cc3)c3ccc(OC)c(OC)c3c[n+]1CC2` belongs 22.6%; to `COc1cc2c(cc1OC)-c1cc3ccc(OC)c(OCc4ccc(C(F)(F)F)cc4)c3c[n+]1CC2`, 38.7%. Same read-out and setting: the same measure for `COc1ccc(C(=O)Nc2c(OC)ccc3cc4[n+](cc23)CCc2cc(OC)c(OC)cc2-4)cc1`: 2.39%. On the same count and under the same terms, the same measure for `CCOc1cc2c(cc1OC)-c1cc3ccc(OC)c(NCc4ccccc4)c3c[n+]1CC2`: 12.4%. In the case of `COc1cc2c(cc1OC)-c1c(Cc3cccc(Br)c3)c3ccc(OC)c(OC)c3c[n+]1CC2`, the selectivity ratio in data set [2] worked out at 3.06. Besides, the inhibition in data set [1] stood at 62.8%. In addition, the CC50 in data set [3] was 45.5 µM. `COC(=O)/C=C/c1ccc(Cc2c3[n+](cc4c(OC)c(OC)ccc24)CCc2cc(OC)c(OC)cc2-3)cc1` showed an inhibition in data set [1] of 0%.

`COc1cc2c(cc1OC)-c1cc3ccc(OC)c(OC(=O)Cc4ccc(C(F)(F)F)cc4)c3c[n+]1CC2` gave an inhibition in data set [1] of 12.4%. Still for that read-out and setting: to `COc1cc2c(cc1OC)-c1cc3ccc(OC)c(NC(=O)c4ccccc4)c3c[n+]1CC2` belongs 0%; to `COc1cc2c(cc1OC)-c1cc3ccc(OC)c(NCc4ccc(Cl)cc4)c3c[n+]1CC2`, 93.6%; to `COc1cc2c(cc1OC)-c1c(Cc3ccccc3C#N)c3ccc(OC)c(OC)c3c[n+]1CC2`, 24.9%.

As to `CCCCCCCCCOc1c(OC)ccc2cc3[n+](cc12)CCc1cc(OC)c(OC)cc1-3`, the inhibition in data set [1] stood at 99.9%. The same measure, in the same setting: the same measure for `COc1cc2c(cc1OC)-c1cc3ccc(OC)c(OC(=O)c4ccco4)c3c[n+]1CC2`: 0%. On the same count and under the same terms, the same measure for `COc1cc2c(cc1OC)-c1cc3ccc(OC)c(NC(=O)c4cc(C)nn4C)c3c[n+]1CC2`: 0%; for `COc1cc2c(cc1OC)-c1cc3ccc(OC)c(OCc4cc(C)cc(C)c4)c3c[n+]1CC2`: 25%. Consider `COc1cc2c(cc1OC)-c1cc3ccc(OC)c(OCc4ccc(C(C)C)cc4)c3c[n+]1CC2`, for which the selectivity ratio in data set [2] is 3.66. In data set [1], this molecule came in with an inhibition of 75%. The CC50 in data set [3] was found to be 28.7 µM.

For the molecule `CCCCCCCCC(=O)Nc1c(OC)ccc2cc3[n+](cc12)CCc1cc(OC)c(OC)cc1-3`, the inhibition in data set [1] is 16.6%. On the same count and under the same terms, to `COc1cc2c(cc1OC)-c1cc3ccc(OC)c(OCc4cccc(C#N)c4)c3c[n+]1CC2` belongs 24.1%.

`CCCCCCNc1c(OC)ccc2cc3[n+](cc12)CCc1cc(OC)c(OC)cc1-3` yielded an inhibition in data set [1] of 71.4%. Still for that read-out and setting: to `CCOc1cc2c(cc1OC)-c1cc3ccc(OC)c(NCc4ccc(Br)cc4)c3c[n+]1CC2` belongs 8.92%. Same read-out and setting: the same measure for `COc1cc2c(cc1OC)-c1cc3ccc(OC)c(NCc4cccc(C#N)c4)c3c[n+]1CC2`: 10.5%; for `COc1cc2c(cc1OC)-c1cc3ccc(OC)c(OC(C)c4ccccc4)c3c[n+]1CC2` (stereo not given): 22.1%.

Take `O=C(O[C@@H]1Cc2c(O)cc(O)cc2O[C@@H]1c1cc(O)c(O)c(O)c1)c1cc(O)c(O)c(O)c1`: the inhibition in data set [1] was 27.6%. Same read-out and setting: to `COc1cc2c(cc1OC)-c1cc3ccc(OC)c(NC(=O)c4cccc(F)c4)c3c[n+]1CC2` belongs 1.12%; to `COc1cc2c(cc1OC)-c1cc3ccc(OC)c(NC(=O)C4CCCCC4)c3c[n+]1CC2`, 3.33%. In the case of `COc1cc2c(cc1OC)-c1cc3ccc(OC)c(OCCc4ccc(C(F)(F)F)cc4)c3c[n+]1CC2`, the selectivity ratio in data set [2] turned out to be 6.05. The molecule also came in with an inhibition in data set [1] of 56.3%. Also, in data set [3], the cytotoxic concentration (CC50) was determined as 88.9 µM. With `COc1cc2c(cc1OC)-c1cc3ccc(OC)c(OCC4CC4)c3c[n+]1CC2`, in data set [1], the inhibition is 14%. On the same count and under the same terms, to `CCOc1cc2c(cc1OC)-c1cc3ccc(OC)c(NCc4ccc(F)cc4)c3c[n+]1CC2` belongs 24.8%; to `COc1cc2c(cc1OC)-c1c(Cc3cccc([N+](=O)[O-])c3)c3ccc(OC)c(OC)c3c[n+]1CC2`, 13%. As to `COc1cc2c(cc1OC)-c1cc3ccc(OC)c(OCC4CCCC4)c3c[n+]1CC2`, the selectivity ratio in data set [2] turned out to be 2.65. Moreover, the inhibition in data set [1] was 46%. In data set [3], the CC50 was 64 µM. In turn, `COc1cc2c(cc1OC)-c1cc3ccc(OC)c(NC(=O)C4CCC4)c3c[n+]1CC2` had an inhibition in data set [1] of 18.9%. With `COc1cc2c(cc1OC)-c1c(Cc3cccc(C#N)c3)c3ccc(OC)c(OC)c3c[n+]1CC2`, in data set [1], the inhibition came to 4.38%. Same read-out and setting: the same measure for `COc1cc2c(cc1OC)-c1c(Cc3ccc(C(C)C)cc3)c3ccc(OC)c(OC)c3c[n+]1CC2`: 99.9%; for `COc1cc(Cc2c3[n+](cc4c(OC)c(OC)ccc24)CCc2cc(OC)c(OC)cc2-3)cc(OC)c1`: 39%. In the case of `COc1cc2c(cc1OC)-c1cc3ccc(OC)c(NCc4ccc(Br)cc4)c3c[n+]1CC2`, the inhibition in data set [1] turned out to be 18.4%.

As for `COc1cc2c(cc1OC)-c1c(Cc3cccc(F)c3)c3ccc(OC)c(OC)c3c[n+]1CC2`, the inhibition in data set [1] worked out at 24.8%.

In turn, `COc1cc2c(cc1OC)-c1c(Cc3ccc(Br)cc3)c3ccc(OC)c(OC)c3c[n+]1CC2` came in with an inhibition in data set [1] of 85.7%.

Consider `COc1ccc(COc2c(OC)ccc3cc4[n+](cc23)CCc2cc(OC)c(OC)cc2-4)cc1OC`, for which, in data set [1], the inhibition is 12.6%.

In the case of `CCCCCOc1c(OC)ccc2cc3[n+](cc12)CCc1cc(OC)c(OC)cc1-3`, the inhibition in data set [1] was determined as 36.7%.

`COc1cc2c(cc1OC)-c1cc3ccc(OC)c(OC(=O)c4ccoc4C)c3c[n+]1CC2` registered an inhibition in data set [1] of 9.91%. On the same count and under the same terms, to `CCCCCCCOc1c(OC)ccc2cc3[n+](cc12)CCc1cc(OC)c(OC)cc1-3` belongs 94.4%; to `COc1cc2c(cc1OC)-c1cc3ccc(OC)c(OCc4ccccc4C#N)c3c[n+]1CC2`, 23%; to `CCOc1cc2c(cc1OC)-c1cc3ccc(OC)c(NCc4ccc(C)cc4)c3c[n+]1CC2`, 36%. In the case of `COc1cc2c(cc1OC)-c1cc3ccc(OC)c(OCc4ccc(Cl)cc4)c3c[n+]1CC2`, the inhibition in data set [1] was determined as 28.9%. The same measure, in the same setting: the same measure for `CCCC(=O)Nc1c(OC)ccc2cc3[n+](cc12)CCc1cc(OC)c(OC)cc1-3`: 5.11%.

Broadly, the inhibition is the relative decrease from the control value, in per cent. The term CC50 denotes the concentration giving 50% cytotoxicity.
